According to ChEMBL document CHEMBL4804284:
Calls of active or inactive are those of the source. No cut-off for these calls is given here.

Experiments:
[1] = target: Protein-tyrosine kinase 6 (Homo sapiens) (UniProt Q13882); test: Inhibition of DNA-tagged human BRK assessed as percent of control at 50000 nM by qPCR analysis relative to control; design: scale not given: the % may be the effect or the level left
[2] = target: Serine/threonine-protein kinase BRSK1 (Homo sapiens) (UniProt Q8TDC3); test: Inhibition of DNA-tagged human BRSK1 assessed as percent of control at 50000 nM by qPCR analysis relative to control; design: scale not given: the % may be the effect or the level left
[3] = target: Mitogen-activated protein kinase kinase kinase 6 (Homo sapiens) (UniProt O95382); test: Inhibition of DNA-tagged human ASK2 assessed as percent of control at 50000 nM by qPCR analysis relative to control; design: scale not given: the % may be the effect or the level left
[4] = target: Serine/threonine-protein kinase pim-2 (Homo sapiens) (UniProt Q9P1W9); test: Inhibition of DNA-tagged human PIM2 assessed as percent of control at 50000 nM by qPCR analysis relative to control; design: scale not given: the % may be the effect or the level left
[5] = target: Activin receptor type-1 (Homo sapiens) (UniProt Q04771); test: Inhibition of DNA-tagged human ACVR1 assessed as percent of control at 50000 nM by qPCR analysis relative to control; design: scale not given: the % may be the effect or the level left
[6] = target: Myosin-IIIb (Homo sapiens) (UniProt Q8WXR4); test: Inhibition of DNA-tagged human MYO3B assessed as percent of control at 50000 nM by qPCR analysis relative to control; design: scale not given: the % may be the effect or the level left
[7] = target: Calcium/calmodulin-dependent protein kinase type IV (Homo sapiens) (UniProt Q16566); test: Inhibition of DNA-tagged human CAMK4 assessed as percent of control at 50000 nM by qPCR analysis relative to control; design: scale not given: the % may be the effect or the level left
[8] = target: Serine/threonine-protein kinase Nek1 (Homo sapiens) (UniProt Q96PY6); test: Inhibition of DNA-tagged human NEK1 assessed as percent of control at 50000 nM by qPCR analysis relative to control; design: scale not given: the % may be the effect or the level left
[9] = target: Cyclin-dependent kinase-like 5 (Homo sapiens) (UniProt O76039); test: Inhibition of DNA-tagged human CDKL5 assessed as percent of control at 50000 nM by qPCR analysis relative to control; design: scale not given: the % may be the effect or the level left
[10] = target: Mitogen-activated protein kinase kinase kinase 12 (Homo sapiens) (UniProt Q12852); test: Inhibition of DNA-tagged human DLK assessed as percent of control at 50000 nM by qPCR analysis relative to control; design: scale not given: the % may be the effect or the level left
[11] = target: Eukaryotic translation initiation factor 2-alpha kinase 1 (Homo sapiens) (UniProt Q9BQI3); test: Inhibition of DNA-tagged human EIF2AK1 assessed as percent of control at 50000 nM by qPCR analysis relative to control; design: scale not given: the % may be the effect or the level left
[12] = tested on: Epidermal growth factor receptor (Homo sapiens), P00533 [UNDEFINED MUTATION]; test: Inhibition of DNA-tagged human EGFR S752-1759del mutant assessed as percent of control at 50000 nM by qPCR analysis relative to control; design: scale not given: the % may be the effect or the level left
[13] = target: Myosin light chain kinase family member 4 (Homo sapiens) (UniProt Q86YV6); test: Inhibition of DNA-tagged human MYLK4 assessed as percent of control at 50000 nM by qPCR analysis relative to control; design: scale not given: the % may be the effect or the level left
[14] = target: Cyclin-dependent kinase 3 (Homo sapiens) (UniProt Q00526); test: Inhibition of DNA-tagged human CDK3 assessed as percent of control at 50000 nM by qPCR analysis relative to control; design: scale not given: the % may be the effect or the level left
[15] = target: Casein kinase I isoform alpha-like (Homo sapiens) (UniProt Q8N752); test: Inhibition of DNA-tagged human CSNK1A1L assessed as percent of control at 50000 nM by qPCR analysis relative to control; design: scale not given: the % may be the effect or the level left
[16] = tested on: Hepatocyte growth factor receptor (Homo sapiens), P08581 [Y1235D]; test: Inhibition of DNA-tagged human MET Y1235D mutant assessed as percent of control at 50000 nM by qPCR analysis relative to control; design: scale not given: the % may be the effect or the level left
[17] = target: Mitogen-activated protein kinase kinase kinase 9 (Homo sapiens) (UniProt P80192); test: Inhibition of DNA-tagged human MLK1 assessed as percent of control at 50000 nM by qPCR analysis relative to control; design: scale not given: the % may be the effect or the level left
[18] = target: Mitogen-activated protein kinase 3 (Homo sapiens) (UniProt P27361); test: Inhibition of DNA-tagged human ERK1 assessed as percent of control at 50000 nM by qPCR analysis relative to control; design: scale not given: the % may be the effect or the level left
[19] = target: Homeodomain-interacting protein kinase 3 (Homo sapiens) (UniProt Q9H422); test: Inhibition of DNA-tagged human HIPK3 assessed as percent of control at 50000 nM by qPCR analysis relative to control; design: scale not given: the % may be the effect or the level left
[20] = target: Serine/threonine-protein kinase 26 (Homo sapiens) (UniProt Q9P289); test: Inhibition of DNA-tagged human MST4 assessed as percent of control at 50000 nM by qPCR analysis relative to control; design: scale not given: the % may be the effect or the level left
[21] = target: Homeodomain-interacting protein kinase 4 (Homo sapiens) (UniProt Q8NE63); test: Inhibition of DNA-tagged human HIPK4 assessed as percent of control at 50000 nM by qPCR analysis relative to control; design: scale not given: the % may be the effect or the level left
[22] = tested on: Receptor-type tyrosine-protein kinase FLT3 (Homo sapiens), P36888 [D835Y]; test: Inhibition of DNA-tagged human FLT3 D835Y mutant assessed as percent of control at 50000 nM by qPCR analysis relative to control; design: scale not given: the % may be the effect or the level left
[23] = target: Mitogen-activated protein kinase kinase kinase kinase 1 (Homo sapiens) (UniProt Q92918); test: Inhibition of DNA-tagged human HPK1 assessed as percent of control at 50000 nM by qPCR analysis relative to control; design: scale not given: the % may be the effect or the level left
[24] = target: Mitogen-activated protein kinase kinase kinase 15 (Homo sapiens) (UniProt Q6ZN16); test: Inhibition of DNA-tagged human MAP3K15 assessed as percent of control at 50000 nM by qPCR analysis relative to control; design: scale not given: the % may be the effect or the level left
U-266 = test: Cytotoxicity against human U-266 cells at 0.1-100 uM assessed as decrease in cell viability relative to control; type: functional, cell-based
[25] = target: Receptor-interacting serine/threonine-protein kinase 4 (Homo sapiens) (UniProt P57078); test: Inhibition of DNA-tagged human RIPK4 assessed as percent of control at 50000 nM by qPCR analysis relative to control; design: scale not given: the % may be the effect or the level left
[26] = target: Serine/threonine-protein kinase 35 (Homo sapiens) (UniProt Q8TDR2); test: Inhibition of DNA-tagged human STK35 assessed as percent of control at 50000 nM by qPCR analysis relative to control; design: scale not given: the % may be the effect or the level left
[27] = target: ALK tyrosine kinase receptor (Homo sapiens) (UniProt Q9UM73); test: Inhibition of DNA-tagged human ALK assessed as percent of control at 50000 nM by qPCR analysis relative to control; design: scale not given: the % may be the effect or the level left
[28] = target: Serine/threonine-protein kinase Chk1 (Homo sapiens) (UniProt O14757); test: Inhibition of DNA-tagged human CHEK1 assessed as percent of control at 50000 nM by qPCR analysis relative to control; design: scale not given: the % may be the effect or the level left
[29] = target: Dual specificity protein kinase CLK4 (Homo sapiens) (UniProt Q9HAZ1); test: Inhibition of DNA-tagged human CLK4 assessed as percent of control at 50000 nM by qPCR analysis relative to control; design: scale not given: the % may be the effect or the level left

Sequence of Activin receptor type-1 (Homo sapiens) (Q04771 whole entry): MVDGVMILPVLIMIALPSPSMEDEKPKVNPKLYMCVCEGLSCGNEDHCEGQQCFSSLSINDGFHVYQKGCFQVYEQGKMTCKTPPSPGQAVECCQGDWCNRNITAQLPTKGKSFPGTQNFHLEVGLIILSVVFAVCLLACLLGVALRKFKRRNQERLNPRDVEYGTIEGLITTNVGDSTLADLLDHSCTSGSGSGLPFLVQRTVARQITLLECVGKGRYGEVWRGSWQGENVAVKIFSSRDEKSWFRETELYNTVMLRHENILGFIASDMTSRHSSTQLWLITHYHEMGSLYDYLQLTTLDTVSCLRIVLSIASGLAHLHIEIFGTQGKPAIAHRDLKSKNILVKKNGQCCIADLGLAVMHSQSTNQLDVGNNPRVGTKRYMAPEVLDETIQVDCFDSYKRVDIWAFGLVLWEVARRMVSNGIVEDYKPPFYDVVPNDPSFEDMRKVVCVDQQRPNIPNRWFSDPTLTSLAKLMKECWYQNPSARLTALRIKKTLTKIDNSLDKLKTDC
Sequence of Eukaryotic translation initiation factor 2-alpha kinase 1 (Homo sapiens) (Q9BQI3 whole entry): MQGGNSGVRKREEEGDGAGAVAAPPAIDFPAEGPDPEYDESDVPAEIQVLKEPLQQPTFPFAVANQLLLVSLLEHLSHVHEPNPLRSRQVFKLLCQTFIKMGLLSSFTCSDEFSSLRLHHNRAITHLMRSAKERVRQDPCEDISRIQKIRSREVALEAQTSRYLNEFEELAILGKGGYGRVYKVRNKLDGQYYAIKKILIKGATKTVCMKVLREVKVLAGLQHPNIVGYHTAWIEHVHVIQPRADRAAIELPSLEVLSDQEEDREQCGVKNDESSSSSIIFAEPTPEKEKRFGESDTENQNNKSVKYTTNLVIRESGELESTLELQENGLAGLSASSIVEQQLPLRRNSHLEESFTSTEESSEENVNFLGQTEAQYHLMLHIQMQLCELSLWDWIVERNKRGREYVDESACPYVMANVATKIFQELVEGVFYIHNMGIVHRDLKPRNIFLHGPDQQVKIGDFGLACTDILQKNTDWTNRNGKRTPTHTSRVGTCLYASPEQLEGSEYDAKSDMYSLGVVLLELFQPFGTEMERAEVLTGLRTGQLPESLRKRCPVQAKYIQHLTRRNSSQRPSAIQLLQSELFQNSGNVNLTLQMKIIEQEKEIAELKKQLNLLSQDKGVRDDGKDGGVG
Sequence of Homeodomain-interacting protein kinase 4 (Homo sapiens) (Q8NE63 whole entry): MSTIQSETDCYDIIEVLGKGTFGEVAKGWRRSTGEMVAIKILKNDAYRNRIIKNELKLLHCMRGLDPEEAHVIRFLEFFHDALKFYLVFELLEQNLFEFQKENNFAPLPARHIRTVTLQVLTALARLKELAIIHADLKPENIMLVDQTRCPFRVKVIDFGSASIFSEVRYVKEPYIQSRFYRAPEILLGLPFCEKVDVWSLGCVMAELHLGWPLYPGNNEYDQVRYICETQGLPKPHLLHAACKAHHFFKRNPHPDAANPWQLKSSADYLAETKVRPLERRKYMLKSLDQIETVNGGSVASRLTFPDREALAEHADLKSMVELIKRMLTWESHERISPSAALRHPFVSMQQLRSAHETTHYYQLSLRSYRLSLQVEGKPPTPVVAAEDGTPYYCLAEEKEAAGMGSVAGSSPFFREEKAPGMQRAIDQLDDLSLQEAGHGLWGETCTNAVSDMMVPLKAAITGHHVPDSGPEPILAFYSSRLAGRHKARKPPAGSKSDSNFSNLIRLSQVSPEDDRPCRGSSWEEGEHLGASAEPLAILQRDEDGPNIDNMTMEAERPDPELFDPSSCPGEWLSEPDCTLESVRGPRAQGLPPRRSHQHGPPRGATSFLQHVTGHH
Sequence of Mitogen-activated protein kinase kinase kinase 6 (Homo sapiens) (O95382 whole entry): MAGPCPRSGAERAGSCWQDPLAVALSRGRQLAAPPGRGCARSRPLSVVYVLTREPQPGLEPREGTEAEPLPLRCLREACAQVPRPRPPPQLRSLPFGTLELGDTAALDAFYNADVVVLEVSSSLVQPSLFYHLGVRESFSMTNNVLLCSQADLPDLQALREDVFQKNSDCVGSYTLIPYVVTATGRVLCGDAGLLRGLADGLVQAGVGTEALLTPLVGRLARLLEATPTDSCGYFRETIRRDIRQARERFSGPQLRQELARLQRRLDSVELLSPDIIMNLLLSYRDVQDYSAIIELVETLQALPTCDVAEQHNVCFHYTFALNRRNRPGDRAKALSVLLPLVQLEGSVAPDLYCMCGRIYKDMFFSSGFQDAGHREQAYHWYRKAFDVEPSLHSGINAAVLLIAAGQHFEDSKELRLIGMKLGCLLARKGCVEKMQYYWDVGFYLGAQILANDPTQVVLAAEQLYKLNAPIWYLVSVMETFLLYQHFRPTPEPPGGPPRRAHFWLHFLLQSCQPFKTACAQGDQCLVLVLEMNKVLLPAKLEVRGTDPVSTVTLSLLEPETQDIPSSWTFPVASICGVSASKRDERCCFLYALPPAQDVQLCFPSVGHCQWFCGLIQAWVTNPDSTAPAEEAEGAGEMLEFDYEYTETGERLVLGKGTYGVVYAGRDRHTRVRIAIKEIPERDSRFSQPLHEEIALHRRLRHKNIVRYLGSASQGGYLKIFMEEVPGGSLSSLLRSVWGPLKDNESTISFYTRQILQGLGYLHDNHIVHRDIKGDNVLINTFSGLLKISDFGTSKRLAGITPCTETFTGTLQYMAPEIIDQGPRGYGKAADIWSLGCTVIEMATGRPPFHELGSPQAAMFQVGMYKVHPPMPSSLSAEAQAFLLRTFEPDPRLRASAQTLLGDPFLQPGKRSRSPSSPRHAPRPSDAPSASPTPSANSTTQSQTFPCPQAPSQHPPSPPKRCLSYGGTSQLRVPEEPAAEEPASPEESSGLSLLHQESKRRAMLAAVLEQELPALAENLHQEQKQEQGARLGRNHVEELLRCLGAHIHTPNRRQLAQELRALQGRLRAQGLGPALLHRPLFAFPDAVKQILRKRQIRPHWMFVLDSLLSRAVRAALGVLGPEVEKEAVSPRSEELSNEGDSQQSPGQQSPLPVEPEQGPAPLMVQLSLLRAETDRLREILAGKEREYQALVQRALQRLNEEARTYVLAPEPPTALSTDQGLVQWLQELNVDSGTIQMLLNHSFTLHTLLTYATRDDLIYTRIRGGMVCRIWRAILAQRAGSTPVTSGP
Sequence of Mitogen-activated protein kinase kinase kinase kinase 1 (Homo sapiens) (Q92918 whole entry, looked up): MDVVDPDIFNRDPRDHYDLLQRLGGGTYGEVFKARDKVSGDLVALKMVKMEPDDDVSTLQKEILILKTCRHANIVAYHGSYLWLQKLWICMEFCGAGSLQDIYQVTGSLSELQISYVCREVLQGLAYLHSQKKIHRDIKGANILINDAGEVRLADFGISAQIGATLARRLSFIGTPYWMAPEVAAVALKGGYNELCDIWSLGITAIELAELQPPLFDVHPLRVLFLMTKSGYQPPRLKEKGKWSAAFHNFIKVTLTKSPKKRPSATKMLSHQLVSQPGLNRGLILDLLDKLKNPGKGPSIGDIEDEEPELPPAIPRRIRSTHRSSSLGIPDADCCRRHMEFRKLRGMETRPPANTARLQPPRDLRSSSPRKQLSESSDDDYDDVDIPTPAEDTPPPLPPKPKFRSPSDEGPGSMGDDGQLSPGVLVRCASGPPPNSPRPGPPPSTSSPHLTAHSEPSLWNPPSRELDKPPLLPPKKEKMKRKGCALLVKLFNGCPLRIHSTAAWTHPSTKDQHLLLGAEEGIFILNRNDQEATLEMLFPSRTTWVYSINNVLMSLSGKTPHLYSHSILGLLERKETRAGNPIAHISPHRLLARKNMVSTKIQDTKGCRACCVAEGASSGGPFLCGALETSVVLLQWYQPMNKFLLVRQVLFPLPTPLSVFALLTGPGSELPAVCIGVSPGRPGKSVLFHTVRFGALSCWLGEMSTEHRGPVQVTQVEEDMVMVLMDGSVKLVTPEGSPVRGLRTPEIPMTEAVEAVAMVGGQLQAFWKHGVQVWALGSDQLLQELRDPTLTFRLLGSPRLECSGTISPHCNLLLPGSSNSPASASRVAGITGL
Sequence of Mitogen-activated protein kinase kinase kinase 9 (Homo sapiens) (P80192 whole entry, looked up): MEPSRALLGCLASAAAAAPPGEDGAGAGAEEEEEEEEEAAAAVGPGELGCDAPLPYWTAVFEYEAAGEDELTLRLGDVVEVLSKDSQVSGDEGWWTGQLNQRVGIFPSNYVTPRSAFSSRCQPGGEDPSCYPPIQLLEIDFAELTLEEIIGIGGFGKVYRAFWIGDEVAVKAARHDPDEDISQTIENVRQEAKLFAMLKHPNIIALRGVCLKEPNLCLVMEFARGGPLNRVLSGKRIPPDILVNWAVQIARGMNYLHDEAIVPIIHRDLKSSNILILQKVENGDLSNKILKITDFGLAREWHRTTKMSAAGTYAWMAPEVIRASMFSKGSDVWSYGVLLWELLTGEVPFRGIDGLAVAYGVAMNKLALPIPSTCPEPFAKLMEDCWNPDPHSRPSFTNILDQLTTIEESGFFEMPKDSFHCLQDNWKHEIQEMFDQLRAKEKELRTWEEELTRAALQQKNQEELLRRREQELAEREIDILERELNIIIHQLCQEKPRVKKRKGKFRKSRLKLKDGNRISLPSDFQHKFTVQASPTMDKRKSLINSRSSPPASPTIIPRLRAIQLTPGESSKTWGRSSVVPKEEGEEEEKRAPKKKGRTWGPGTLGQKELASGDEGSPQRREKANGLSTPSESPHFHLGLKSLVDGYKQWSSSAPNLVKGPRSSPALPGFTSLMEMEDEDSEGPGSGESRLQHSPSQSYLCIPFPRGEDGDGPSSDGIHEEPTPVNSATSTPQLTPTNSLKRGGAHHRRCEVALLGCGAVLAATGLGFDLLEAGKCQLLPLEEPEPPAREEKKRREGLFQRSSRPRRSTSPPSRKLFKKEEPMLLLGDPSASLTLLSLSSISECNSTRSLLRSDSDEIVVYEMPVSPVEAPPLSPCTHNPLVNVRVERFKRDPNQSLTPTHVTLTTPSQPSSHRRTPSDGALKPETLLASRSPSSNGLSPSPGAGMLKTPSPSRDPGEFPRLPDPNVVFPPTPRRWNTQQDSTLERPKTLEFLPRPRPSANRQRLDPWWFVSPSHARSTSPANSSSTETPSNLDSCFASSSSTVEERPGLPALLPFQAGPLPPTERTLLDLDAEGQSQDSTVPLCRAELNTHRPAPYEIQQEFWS

**Q.** What does the source list for `CN1C(=O)/C(=C2/C(=O)Nc3ccccc32)c2ccccc21`?
**A.** Activity [1]: 100%; Activity [2]: 94%; Activity [3]: 100%; Activity [4]: 100%; Activity [5]: 99%; Activity [6]: 100%; Activity [7]: 88%; Activity [8]: 92%; Activity [9]: 91%; Activity [10]: 100%; Activity [11]: 64%; Activity [12]: 88%; Activity [13]: 87%; Activity [14]: 78%; Activity [15]: 97%; Activity [16]: 99%; Activity [17]: 100%; Activity [18]: 100%; Activity [19]: 80%; Activity [20]: 100%; Activity [21]: 100%; Activity [22]: 75%; Activity [23]: 93%; Activity [24]: 69%; Activity (U-266): Active; Activity [25]: 98%; Activity [26]: 89%; Activity [27]: 97%; Activity [28]: 100%; Activity [29]: 100%
